Laboratory results published in paper PMC12305494, “Discovery of PXR Antagonist MI891 and PXR Degrader MI1013 and Their Roles in Hepatic Gene Regulation” (Journal of Medicinal Chemistry, 2025).
Several values for one entry are separate records, joined by “and”; a condition that tells them apart may be missing. Identical values can stand only once.

What was measured:
[1] = biological target: T1, human CAR LBD (Homo sapiens, UniProt Q14994); test: CAR LBD assembly assay (CAR AA); type: cell-based
T1 construct: constructs encoding helices 3–12 and helix 1 of human CAR LBD; expressed in transfected cells; host or cells: HepG2
T1 sequence (Q14994 103-150 isoform Q14994-2 limits assumed): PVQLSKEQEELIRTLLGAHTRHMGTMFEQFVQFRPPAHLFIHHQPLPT
T1 sequence (Q14994 151-348 isoform Q14994-2 limits assumed): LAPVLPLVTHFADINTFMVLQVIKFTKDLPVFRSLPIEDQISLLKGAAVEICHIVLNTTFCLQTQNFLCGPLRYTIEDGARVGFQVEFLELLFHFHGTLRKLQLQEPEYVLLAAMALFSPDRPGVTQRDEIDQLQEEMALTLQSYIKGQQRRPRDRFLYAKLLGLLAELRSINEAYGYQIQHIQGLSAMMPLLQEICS
Source text: The CAR LBD assembly assay used constructs encoding helices 3–12 and helix 1 of human CAR LBD as described before. GL4.31[luc2P/GAL4UAS/Hygro] (pGAL4 UAS-luc) luciferase reporter vector and pRL-TK Renilla expression vector (Promega) were used in the assay in HepG2 cells transfected using Lipofectamine 3000.

[2] = biological target: T2, human wild-type CAR (CARwt) (Homo sapiens, UniProt Q14994); test: CARwt luciferase reporter gene assay in HepG2; type: cell-based
T2 construct: expressed in transfected cells; host or cells: HepG2
Protocol: (§1) Rhesus monkey, mouse, and rat PXR expression vectors (100 ng/well each) were also obtained from GenScript. […] Carlberg (University of Kuopio, Kuopio, Finland).
(§2) The cells were cultured in DMEM medium (Merck) supplemented with 10% fetal bovine serum.

[3] = biological target: T3, LXRα (Homo sapiens, UniProt Q13133); test: LXRα luciferase reporter assay, agonistic and antagonistic setups; type: cell-based; details: prototype ligand GW3965
T3 construct: expressed in transfected cells
Protocol: For the farnesoid X receptor (FXR) luciferase gene reporter assay, the full-length expression vector was paired with pFXRE-luc luciferase construct. The p1A1-luc construct was used in the aryl hydrocarbon receptor (AhR) assays with pRL-TK for normalization. Gal4-LXR-α/β, and Gal4-PPAR-γ constructs were used with the pGAL4 UAS-luc construct. For the VDR assay, expression vector pSG5-hVDR together with pVDRE-luc constructs was used. Firefly and Renilla luciferase activities were analyzed using a Dual reporter assay (Promega). For the nuclear receptor assays, prototype ligands were used at the following concentrations: Calcitriol for VDR (100 nM), GW3965 for LXRα and LXRβ (10 μM), 6-OCA for FXR (1 μM), fenofibrate for PPARα (10 μM), estradiol for ERα and β (10 μM), rosiglitazone for PPARγ (10 μM), 3-MC for AhR (5 μM), and TCPOBOP for mCAR (10 μM). Detailed descriptions and protocols are detailed in our recent publication. ,

[4] = tested on: rodent PXRs; test: Rodent PXR orthologue luciferase reporter assays; type: cell-based, rat/mouse; details: PCN as prototypical inducer
Protocol: (§3) The CYP3A4 gene promoter luciferase reporter construct (p3A4-luc) bears a distal XREM (−7836/–7208) and a proximal promoter sequence (prPXRE, −362/+53) from the CYP3A4 gene promoter region. […] The human PXR expression vector (variant 1, NM_003889.3) as well as vectors for mouse, rat, and monkey orthologues were described in our recent paper (39). […] Rhesus monkey, mouse, and rat PXR expression vectors (100 ng/well each) were also obtained from GenScript. […] Carlberg (University of Kuopio, Kuopio, Finland).
as §2

[5] = biological target: rhesus monkey PXR (oPXR) (Macaca mulatta, UniProt Q8SQ01); test: Rhesus monkey PXR luciferase reporter assay; type: cell-based; details: rifampicin as prototypical inducer
Protocol: as §3, §2

[6] = biological target: T4, PXR (Homo sapiens, UniProt O75469); test: PXR-responsive CYP3A4 promoter luciferase reporter assay in HepG2, agonist mode; type: cell-based; parameters: expressed in transfected cells; host or cells: HepG2; details: HepG2, at concentrations up to 10 μM
T4 sequence (O75469 1-434): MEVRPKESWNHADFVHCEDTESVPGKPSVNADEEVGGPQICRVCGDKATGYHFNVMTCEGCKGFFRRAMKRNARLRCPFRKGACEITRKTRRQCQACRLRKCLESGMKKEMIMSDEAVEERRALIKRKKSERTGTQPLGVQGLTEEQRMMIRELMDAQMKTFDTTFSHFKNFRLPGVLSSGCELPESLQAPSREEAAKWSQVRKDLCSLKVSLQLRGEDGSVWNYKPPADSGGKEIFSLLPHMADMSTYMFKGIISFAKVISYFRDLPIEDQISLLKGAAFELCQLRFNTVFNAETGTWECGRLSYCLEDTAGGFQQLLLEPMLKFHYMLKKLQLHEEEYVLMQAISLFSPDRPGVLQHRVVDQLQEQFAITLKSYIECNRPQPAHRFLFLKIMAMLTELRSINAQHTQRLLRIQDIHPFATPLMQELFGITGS
Protocol: as §1, §2

T2 sequence (Q14994 1-348 isoform Q14994-2): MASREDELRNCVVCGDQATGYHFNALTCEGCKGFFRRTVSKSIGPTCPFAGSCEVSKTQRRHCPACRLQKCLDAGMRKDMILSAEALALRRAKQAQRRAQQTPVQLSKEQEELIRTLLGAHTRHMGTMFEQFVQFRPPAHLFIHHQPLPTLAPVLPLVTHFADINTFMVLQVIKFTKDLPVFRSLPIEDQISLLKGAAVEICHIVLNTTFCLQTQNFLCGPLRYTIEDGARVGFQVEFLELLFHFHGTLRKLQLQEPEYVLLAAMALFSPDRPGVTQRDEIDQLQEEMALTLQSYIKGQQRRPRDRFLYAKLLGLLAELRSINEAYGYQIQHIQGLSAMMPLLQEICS
T3 sequence (Q13133 209-447 limits assumed): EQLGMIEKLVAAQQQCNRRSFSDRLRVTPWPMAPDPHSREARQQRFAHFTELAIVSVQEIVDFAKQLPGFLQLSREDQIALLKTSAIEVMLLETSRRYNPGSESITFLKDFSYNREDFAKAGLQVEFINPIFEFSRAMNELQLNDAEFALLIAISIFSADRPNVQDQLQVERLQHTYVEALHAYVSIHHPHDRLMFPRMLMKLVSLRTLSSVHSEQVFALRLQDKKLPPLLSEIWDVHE
Sequence of rhesus monkey PXR (oPXR) (Q8SQ01 whole entry): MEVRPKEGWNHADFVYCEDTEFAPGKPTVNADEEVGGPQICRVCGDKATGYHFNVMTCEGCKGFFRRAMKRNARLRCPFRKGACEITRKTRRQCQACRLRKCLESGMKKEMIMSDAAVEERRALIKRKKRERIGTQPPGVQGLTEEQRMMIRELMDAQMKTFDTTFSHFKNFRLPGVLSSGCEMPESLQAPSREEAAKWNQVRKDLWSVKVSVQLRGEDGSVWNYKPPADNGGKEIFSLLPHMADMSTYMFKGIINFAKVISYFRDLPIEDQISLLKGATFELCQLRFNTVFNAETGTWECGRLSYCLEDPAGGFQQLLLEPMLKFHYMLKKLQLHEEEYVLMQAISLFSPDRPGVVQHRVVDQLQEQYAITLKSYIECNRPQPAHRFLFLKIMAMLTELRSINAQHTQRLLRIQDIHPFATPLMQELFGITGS

EC50 ([2]; HepG2, read-out: CARwt activation EC50) | activation of CARwt ([2]; at concentrations up to 10 μM) | activity on rodent PXRs [4] | activity on rhesus monkey PXR (oPXR) [5] | PXR agonistic activity [6] | Molecule | activation of CAR LBD assembly ([1]; at 10 μM concentration) | EC50 ([1]; na = no activity, tox = cytotoxicity in HepG2 cells) [µM] | agonistic or antagonistic activity on LXRα [3]
~137 µM and 137 µM | no significant activation | no activities | full agonism |  | NC(=O)c1cc(Cn2cc(-c3c(-c4ccc(Cl)cc4)nc4c(F)cc(F)cn34)nn2)ccc1Cl [Compound 11, 2-Chloro-5-((4-(2-(4-chlorophenyl)-6,8-difluoroimidazo[1,2-a]pyridin-3-yl)-1H-1,2,3-triazol-1-yl)methyl)-benzamide] | lack of significant (p value 0.07) activation | > 10 | no significant agonistic or antagonistic activities
 |  |  |  | did not exhibit agonistic activity | N-(4-((1-(2,5-dimethoxyphenyl)-5-methyl-1H-1,2,3-triazol-4-yl)sulfonyl)phenyl)-3-(2-(2-(2-(4-(((2-(2,6-dioxopiperidin-3-yl)-1,3-dioxoisoindolin-4-yl)amino)methyl)-1H-1,2,3-triazol-1-yl)ethoxy)ethoxy)ethoxy)propenamide [Compound 36] |  |  | 
